# Values quoted from earlier work, collected in patent publication US9061040B2, “Combination therapy for breast cancer” (priority 2011, dated 2015).
# Legend:
# [1] = tested on: liver cancer; details: 45 mg daily for two years, women with viral liver cirrhosis
# [2] = tested on: advanced prostate cancer; details: supplemental intake greater than 400 IU/day; current smokers or quit within the past 10 years
# [3] = tested on: prostate cancer; details: male smokers
# [4] = 180-300 mg/day over 10 years
molecule,measurement,setting,value
menaquinone [vitamin K2 (menaquinone)],less likely to develop liver cancer,[1],~90%
vitamin E,reduction in risk of advanced prostate cancer,[2],71%
same,reduction of prostate cancer cases,[3]; 50 mg daily versus no vitamin E,one-third reduction
same,new cases of prostate cancer among participants who received vitamin E,"[3]; 50 mg daily, 5 to 8-year intervention, 147 cases without vitamin E, 246 in total",99 cases
CC1=C(/C=C/C(C)=C/C=C/C(C)=C/C=C/C=C(C)/C=C/C=C(C)/C=C/C2=C(C)CCCC2(C)C)C(C)(C)CCC1 [β-carotene],toxicity,[4],did not show any toxicity
